In patent US20140349943A1, “TOPICAL FORMULATIONS OF CHEMERIN C15 PEPTIDES FOR THE TREATMENT OF DERMATOLOGICAL CONDITIONS” (priority 2011, published 2014):
Values joined by “and” are separate entries in the source; they are usually repeats but may differ in a detail not shown here. Equal entries are not always repeated. Peptide text beside a SMILES is read from it.

Key:
[1] = Franz diffusion cell skin penetration, C15 ointment; type: in vitro ADME, human
Procedure: The objective of the study was to determine whether human chemerin C15 peptide would diffuse through in vitro human skin maintained under flow-through conditions in Franz cells where the C15 peptide is administered as an ointment. Human chemerin C15 peptide was prepared as an ointment as described in Example 4. A 10% solution of the C15 ointment was prepare immediately prior to skin application. […] human skin obtained from abdominoplasty was maintained in tissue media and antibiotics and used within 3 days.
A standard Franz diffusion cell (LGA, Berkeley, Calif.) was used under static conditions (n=3). Approximately 200 μl of the 10% ointment solution was transferred to the surface of the skin and distributed on the surface by spatula. A thin liner was then applied for light pressure to the skin surface for 5 min after which the diffusion cell was occluded and maintained for 24 hours. After this time, the ointment was recovered by scraping a spatula over the skin surface and transferring the retained material to a 50/50 water-chloroform solution. The epidermis and dermis were then separated by heat and the epidermis extracted with a 50/50 water-chloroform solution. The epidermis was then transferred to a second tube and homogenized in PBS containing 0.1% protease inhibitor. The dermis was minced and homogenized in PBS containing 0.1% protease inhibitor. The receptor fluid was recovered and concentrated under vacuum. Ointment without C15 was applied to skin and the skin sampled in the same manner as a control (n=2).
C15 recovery from the dosing material, epidermis, and receptor fluid was determined by HPLC. C15 concentration in the dermis was determine by LC/MS. The skin surface and epidermis recoveries and epidermis homogenate samples were analyzed using the following reversed phase HPLC conditions:
The dermis samples were analyzed using the following LC/MS/MS conditions: […]

[2] = Franz cell skin penetration, C15 in 50% DMSO in water; type: in vitro ADME, human
Source text: The objective of the study was to determine whether human C15 peptide would diffuse through in vitro human skin maintained under flow-through conditions in Franz cells with 50% DMSO in water. 50% DMSO is considered an acceptable maximum for penetration enhancement.
The samples used in the study were mouse and human chemerin C15 peptides stored at −20 C°. The skin sample used was human skin obtained from mammoplasty. A frozen sample was stored at −20 C.° for 30 days. A fresh sample was obtained in tissue media and antibiotics and used within 3 days.
1. A 1% solution of mouse C15 in 50% DMSO in water was applied to previously frozen human skin to develop the HPLC method for subsequent tests with human C15. This was done in triplicate. 2. A 2% solution of human C15 in 50% DMSO in water was applied to fresh human skin and epidermis, dermis, and receptor fluid were analyzed for C15.
Skin was rinsed, blotted dry, cut into circular pieces and conditioned in the Franz cell for 2 hours prior to C15 application. Flow-through, water-jacketed diffusion cells that exposed a skin area of 2.54 cm2 were used. The cells were maintained at 37° C., operated under static conditions and stirred at 700 rpm for 24 hr. PBS (pH=7.0) was used as the receptor fluid. C15 solutions in 50% DMSO in water was prepared on the day of the experiments.
400 μl of each C15 solution was pipetted in aliquots of 100 μl onto the skin surface and the diffusion cell sealed with parafilm. Diffusion cells were run in triplicate with a single control consisting of skin treated with vehicle only. Receptor fluid (≈5 mL) was collected at the end of 24 hours and concentrated by evaporation prior to analysis. The skin was blotted dry, tape-stripped three times to remove residual C15 and heat-separated at 50° C. into epidermis and dermis. Epidermis was sonicated in 5% TCA for 10 minutes and the supernatant analyzed. Dermis was minced and homogenized in 5% TCA and the supernatant concentrated and analyzed.
For the mouse C15 experiment only the receptor fluid was analyzed.
A reverse-phase HPLC method was developed to quantify Human C15 (Shimamura et al., 2009). The separation was achieved using a Phenomenex Gemini™ C18 column (Cat. No. 00B-4439-E0, 4.6×50 mm, 3 μm) at 40° C. in the Shimadzu 20A system. The mobile phase was mixed with (A) 0.1% formic in water and (B) 0.1% formic acid in acetonitrile. The separation was conducted using a gradient system of 80% A+20% B to 10% A+90% B (0-3 min) and 10% A+90% B (3-3.5 min) at a flow rate of 0.8 ml/min. The injection volume was 5 μl. The eluent was monitored at 275 nm Human C15 was observed as a single peak in the chromatogram with retention time at about 1.8 min. The quantification of Human C15 was achieved by external standard calibration. […]

[3] = tested on: mice; experiment: Contact hypersensitivity assay; type: in vivo, mouse; settings: TNCB hapten; ear thickness; expected
Procedure: In this example, the therapeutic activity of a human chemerin C15 peptide is tested in a contact hypersensitivity assay, which is an in vivo assay of cell-mediated immune function and a model for human allergic contact dermatitis. In this assay, epidermal cells are exposed to exogenous haptens which results in a delayed-type hypersensitive reaction that can be measured and quantified. The Langerhans cell, which is an Ia^+, bone marrow-derived, epidermal cell, initiates sensitization to haptens by presenting antigens to CD4-bearing T lymphocytes, which, in turn, secrete lymphokines and recruit other cells to the site of the reaction.
Contact hypersensitivity consists of the afferent or initial sensitizing phase, and the efferent or elicitation phase. During the efferent phase, when epidermal cells encounter a particular antigen to which they have previously been exposed, localized swelling occurs (in rodents) and in humans results in eczema of the skin.
In an exemplary protocol, mice are shaved and the skin of their abdomens exposed to a hapten. After 6 days (the afferent phase), the baseline ear thickness is measured prior to initiation of the efferent phase. Finally, the ear is treated epicutaneously with the hapten solution and ear thickness is measured at approximately 24 hr. […]

[4] = tested on: IFNγ/LPS stimulated human macrophages; experiment: Cytokine secretion by IFNγ/LPS stimulated human macrophages (Luminex); type: cell-based; settings: 16 hours post-stimulation
[5] = ointment, 24 hours, listed as C15
[6] = 2% human C15 in 50% DMSO, fresh human skin, % absorbed of the applied dose, listed as C15

Compound | [C15] in Receptor Fluid (5 mL) ([1]; Ointment, fresh human skin, after 24 hrs) | recovery at 24 h ([1]; female, human, ointment, 24 hours, mass balance, read-out: Total % recovery) | epidermis and dermis combined, share of the applied dose ([1]; ointment) | Receptor fluid, C15 ([1]; ointment, 24 hours, HPLC LLQ 150 ng/ml) | Dermis homogenate, % of applied [1, 5] | Epidermis, % of applied [1, 5] | Epidermis, C15 [1, 5] | Skin Surface, % of applied [1, 5] | Skin Surface, C15 recovered [1, 5] | Total % recovery ([1]; ointment, 24 hours, mass balance, listed as C15) | % C15 in skin compartment, epidermis [2, 6] | % C15 in skin compartment, receptor fluid [2, 6] | penetration through human skin, in words ([2]; in vitro flow-through conditions, 50% DMSO in water) | allergic response (contact hypersensitivity) [3] | inhibition of human macrophage secretion of IL-1β ([4]; 1 pM) | inhibition of human macrophage secretion of RANTES ([4]; 1 pM) | inhibition of human macrophage secretion of IL-12p40 [4] | C15 receptor fluid level ([2]; 1% mouse C15 in 50% DMSO, frozen human skin)
C[C@H](N)C(=O)NCC(=O)N[C@@H](CCC(=O)O)C(=O)N[C@@H](CC(=O)O)C(=O)N1CCC[C@H]1C(=O)N[C@@H](Cc1c[nH]cn1)C(=O)N[C@@H](CO)C(=O)N[C@@H](Cc1ccccc1)C(=O)N[C@@H](Cc1ccc(O)cc1)C(=O)N[C@@H](Cc1ccccc1)C(=O)N1CCC[C@H]1C(=O)NCC(=O)N[C@@H](CCC(N)=O)C(=O)N[C@@H](Cc1ccccc1)C(=O)N[C@@H](C)C(=O)O [C15 (human)] (H-AGEDPHSFYFPGQFA-OH; N-terminus and C-terminus assumed) | <10 nM | 104% | < 1% | <LLQ | 0.00% and 0.02% and 0.12% | 70.2% and 64.1% and 71.2% | 1.53 mg and 2.25 mg and 1.45 mg | 33.6% and 33.3% and 40.6% | 0.74 mg and 1.17 mg and 0.83 mg | 97.4% and 111.8% | 8.76% and 7.38% and 2.67% | 0.02% and 0.09% and 0.01% | does penetrate through human skin | prevention, suppression and/or treatment of the allergic response | approximately 45% | ~65% | approximately 55% | –
CC(C)C[C@H](NC(=O)[C@H](Cc1ccccc1)NC(=O)[C@H](Cc1ccc(O)cc1)NC(=O)CNC(=O)[C@H](Cc1c[nH]cn1)NC(=O)[C@@H]1CCCN1C(=O)[C@H](CC(=O)O)NC(=O)[C@H](CCC(=O)O)NC(=O)CNC(=O)[C@H](C)N)C(=O)N1CCC[C@H]1C(=O)NCC(=O)N[C@@H](CCC(N)=O)C(=O)N[C@@H](Cc1ccccc1)C(=O)N[C@@H](C)C(=O)O [mC15] (H-AGEDPHGYFLPGQFA-OH; N-terminus and C-terminus assumed) | – | – | – | – | – | – | – | – | – | – | – | – | – | – | – | – | – | 0.3%
